# Test results taken from patent publication EP1118615A1, “NOVEL SALTS OF PYRIDOPYRAZINE COMPOUND AND CRYSTALS THEREOF” (FUJISAWA PHARMACEUTICAL CO., LTD., priority 1998, dated 2000).
# Tests used:
# [1] = system: DGalN/LPS-induced rat hepatitis model; experiment: (B1) DGalN/LPS-induced rat hepatitis model; format: in vivo, Wistar rats; settings: oral, 24 hr after DGalN/LPS
# Description: (B1) DGalN/LPS-induced rat hepatitis model
# [Method] Male Wistar rats aged 12 weeks were deprived of food for 24 hours and dosed orally with the drug or the solvent vehicle in predetermined doses. Immediately thereafter, saline was administered from the tail vein to the NORMAL group and D-galactosamine hydrochloride (DGalN) (300 mg/kg)/LPS (0.32 µg/kg) was administered similarly to the CONTROL and DRUG groups. At 24 hr after administration of DGaIN/LAS, the blood was drawn and the liver isolated. Using the blood, liver-derived enzymes (ALT and AST) in plasma were assayed. The liver was fixed in formalin and phathological specimens were prepared. Histopathological findings (inflammatory cell infiltration and liver cell necrosis) were evaluated.
# [2] = system: IL-10; experiment: (A3) Anti-CD3/CD28 antibody-stimulated cytokine production inhibitory activity in PBMC, ELISA: IL-10; format: cell-based; settings: Homo sapiens, anti-CD3 and anti-CD28 antibodies, 24-hr culture supernatant
# Description: (§1) (A3) Anti-CD3/CD28 antibody-stimulated TNF α production inhibitory activity in human peripheral blood monocytes (PBMC)
# (§2) [Method] Monocytes isolated from healthy adult male volunteers were cultured and stimulated with anti-CD3 and anti-CD28 antibodies and the amounts of TNF, INF, 1L-2, IL-4 and IL-10 in the 24-hr culture supernatant were determined by ELISA.
# [3] = system: DGalN-induced rat hepatitis model; experiment: (B2) DGalN-induced rat hepatitis model; format: in vivo, Wistar rats; settings: oral, 24 hours after DGalN
# Description: (B2) DGalN-induced rat hepatitis model
# [Method] Male Wistar rats aged 12 weeks were deprived of food for 24 hours and dosed orally with the drug or the solvent vehicle in predetermined doses. Immediately thereafter, saline was administered intraperitoneally to the NORMAL group and D-galactosamine hydrochloride (DGalN), 400 mg/kg, was administered similarly to the CONTROL and DRUG groups. At 24 hours after administration of DGalN, the blood was drawn and the liver isolated. Using the blood, the liver-derived en zymes (ALT, AST) in plasma were assayed. The liver was fixed in formalin and pathological specimens were prepared. Histopathological findings (inflammatory cell infiltration and liver cell necrosis) were evaluated.
# [4] = Hygroscopicity; format: physicochemical
# From the text: In the study on polymorphism of compound (I), six kinds of polymorphs (A01, A09, A16, A20, A30 and A43 crystals) were found. For each of those polymorphs, hygroscopicity, stability in solid state, solubility and changes in crystallinity on compounding with various solvents were studied. However, the A30 crystal was not studied since it contains ethanol.
# [5] = system: mouse model of NC/NGa dermatitis; experiment: (B7) Atopy, Method 2: spontaneous atopic dermatitis model; format: in vivo; settings: oral once daily for 17 consecutive days
# Description: [Method 2] Spontaneous atopic dermatitis mode:
# In the mouse model of NC/NGa dermatitis, the drug was administered orally once daily for 17 consecutive days.
# [6] = system: IL-2; experiment: (A3) Anti-CD3/CD28 antibody-stimulated cytokine production inhibitory activity in PBMC, ELISA: IL-2; format: cell-based; settings: Homo sapiens, anti-CD3 and anti-CD28 antibodies, 24-hr culture supernatant
# Description: as §1, §2
# [7] = system: IL-4; experiment: (A3) Anti-CD3/CD28 antibody-stimulated cytokine production inhibitory activity in PBMC, ELISA: IL-4; format: cell-based; settings: Homo sapiens, anti-CD3 and anti-CD28 antibodies, 24-hr culture supernatant
# Description: as §1, §2
# [8] = system: LEC rat spontaneous hepatitis model; experiment: (B5) LEC rat spontaneous hepatitis model; format: in vivo, Long Evans Cinnamon (LEC) rats; settings: oral once daily for 23 consecutive weeks
# Description: (B5) LEC rat spontaneous hepatitis model
# Long Evans Cinnamon (LEC) rats are known to spontaneously develop acute hepatitis with jaundice as a cardinal sign and 50~70% of them experience a fulminating stage and die. It is also known that almost all surviving animals run a clinical course of acute hepatitis-chronic hepatitis-biliary fibrosis (cirrhosis)-hepatocarcinoma.
# [Method] To 9-week-old male LEC rats, either the drug or the solvent vehicle was administered orally in predetermined doses once daily for 23 consecutive weeks. On the day following the last dosing day, the blood was drawn and the liver isolated. Using the blood, the liver-derived enzymes (ALT, AST) in plasma were assayed. The liver was fixed in formalin and pathological specimens were prepared. Histopathological findings (inflammatory cell infiltration, biliary hyperplasia and liver cell necrosis) were evaluated.
# [9] = (A3) Anti-CD3/CD28 antibody-stimulated cytokine production inhibitory activity in PBMC, ELISA: TNF γ; format: cell-based; settings: Homo sapiens, anti-CD3 and anti-CD28 antibodies, 24-hr culture supernatant
# Description: as §1, §2
# [10] = system: ConA (concanavalin A) -induced mouse hepatitis model; experiment: (B3) ConA (concanavalin A)-induced mouse hepatitis model; format: in vivo, Balb/c mice; settings: 18 hours after ConA
# Description: (B3) ConA (concanavalin A) -induced mouse hepatitis model
# [Method] Male Balb/c mice aged 9 weeks were deprived of food for 20 hours and the drug or the solvent vehicle was administered orally in predetermined doses. After 1 hour, saline was administered intravenously to the NORMAL group and concanavalin A, 0.4 mg/mouse, was administered similarly to the CONTROL and DRUG groups. At 18 hours after administration of ConA, the blood was drawn and the liver isolated. Using the blood, the liver-derived enzymes (ALT and AST) in plasma were assayed. The liver was fixed in formalin and pathological specimens were prepared. Histopathological findings (inflammatory cell infiltration and liver cell necrosis) were evaluated.
# [11] = system: antigen-induced eosinophil infiltration in guinea pigs; experiment: (B8) Inhibitory effect on antigen-induced eosinophil infiltration in guinea pigs; format: in vivo, Hartley guinea pigs; settings: oral 1 hour before the challenge; BAL 24 hours after challenge
# Description: (B8) Inhibitory effect on antigen-induced eosinophil infiltration in guinea pigs
# [Method] Male Hartley guinea pigs were sensitized by intravenous administration of guinea-pig anti-ovalbumin (OVA) antiserum. After 24 hours, an antigen challenge was performed by inhalation exposure to a nebulized 1% solution of OVA. At 24 hours after challenge with the antigen, the bronchial alveolar lavage (BAL) was collected and the number of eosinophils was determined using the eosinophil peroxidase activity in BAL as an indicator. The drug was administered orally 1 hour before the challenge. [Results]
# [12] = system: TNF α; experiment: (A3) Anti-CD3/CD28 antibody-stimulated cytokine production inhibitory activity in PBMC, ELISA: TNF α; format: cell-based; settings: Homo sapiens, anti-CD3 and anti-CD28 antibodies, 24-hr culture supernatant
# Description: as §1, §2
# [13] = physchem; settings: thermodynamic from solid
# [14] = target: T1, human PDE4-B1 isoform (Homo sapiens, UniProt Q07343); experiment: (A1) PDE-IV inhibitory activity, crude enzyme from CHO cells expressing the cDNA; format: biochemical
# T1 construct: made in house; host or cells: CHO cells
# T1 sequence (Q07343 whole entry, canonical isoform): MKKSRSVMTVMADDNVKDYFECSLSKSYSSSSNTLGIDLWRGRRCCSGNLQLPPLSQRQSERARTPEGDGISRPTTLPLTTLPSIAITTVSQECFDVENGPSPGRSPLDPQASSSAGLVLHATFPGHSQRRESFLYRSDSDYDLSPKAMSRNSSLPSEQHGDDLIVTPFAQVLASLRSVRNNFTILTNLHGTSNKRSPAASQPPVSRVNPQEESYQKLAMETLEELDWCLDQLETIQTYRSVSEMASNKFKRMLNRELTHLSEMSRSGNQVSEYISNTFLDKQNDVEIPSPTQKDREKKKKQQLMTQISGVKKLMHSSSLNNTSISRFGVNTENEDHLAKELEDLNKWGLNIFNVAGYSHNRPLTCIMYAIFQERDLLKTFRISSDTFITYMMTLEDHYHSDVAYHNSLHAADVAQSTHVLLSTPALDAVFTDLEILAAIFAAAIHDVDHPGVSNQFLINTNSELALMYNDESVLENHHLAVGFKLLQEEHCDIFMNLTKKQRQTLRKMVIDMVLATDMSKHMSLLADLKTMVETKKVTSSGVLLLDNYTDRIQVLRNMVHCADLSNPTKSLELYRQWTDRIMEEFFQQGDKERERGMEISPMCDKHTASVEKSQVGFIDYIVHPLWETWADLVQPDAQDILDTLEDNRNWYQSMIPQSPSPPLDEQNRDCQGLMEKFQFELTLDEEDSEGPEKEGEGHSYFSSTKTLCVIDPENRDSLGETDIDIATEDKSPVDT
# Description: (A1) PDE-IV inhibitory activity [Method] A crude enzyme was prepared from the cells (CHO cells) to which the cDNA for human PDE4-B1 isoform had been introduced for expression of the protein and the PDE4 inhibitory activity of the compound (I) of this invention was determined.
compound,measurement,setting,value
"CS(=O)(=O)O.O.O.O=C(Nc1cccc(-n2c(=O)c(Cc3cccnc3)nc3cccnc32)c1)c1cc(Cl)cc(Cl)c1 [Example 2, 4-(3-(3,5-dichlorobenzoylamino)phenyl)-2-(3-pyridyl)methyl-3-oxo-3,4-dihydropyrido[2,3-b]pyrazine methanesulfonate dihydrate]",elevation of blood ALT,[1],significantly inhibited
same,elevation of blood AST,[1],significantly inhibited
same,inflammatory cell infiltration,[1]; histopathology,inhibited
same,liver cell necrosis,[1]; histopathology,inhibited
same,IC50,[2],0.0597 µM
same,elevation of blood ALT,[3],significantly inhibited
same,elevation of blood AST,[3],significantly inhibited
same,inflammatory cell infiltration,[3]; histopathology,inhibited
same,liver cell necrosis,[3]; histopathology,inhibited
same,Hygroscopicity,[4],less hygroscopic
same,disease state-ameliorating effect,[5],significant disease state-ameliorating effect
same,IC50,[6],0.13 µM
same,IC50,[7],0.155 µM
same,elevation of blood ALT,[8],significantly inhibited
same,elevation of blood AST,[8],significantly inhibited
same,inflammatory cell infiltration,[8]; histopathology,inhibited
same,liver cell necrosis,[8]; histopathology,inhibited
same,IC50,[9],0.0573 µM
same,elevation of blood ALT,[10]; oral 1 hour before ConA,significantly inhibited
same,elevation of blood AST,[10]; oral 1 hour before ConA,significantly inhibited
same,inflammatory cell infiltration,"[10]; oral, histopathology",inhibited
same,liver cell necrosis,"[10]; oral, histopathology",inhibited
same,infiltration of eosinophils and other inflammatory cells into the bronchial alveola,[11],inhibited
same,IC50,[12],0.0445 µM
same,solubility at 30 min,[13]; saline or isotonic,0.0643 mg/mL
same,solubility at 30 min,[13]; water,0.887 mg/mL
same,IC50,[14],0.026 µM
